How the values were obtained:
[1] = system: Mus musculus; assay: Lowest daily intraperitoneal dose causing hypervitaminosis A symptoms was determined in a 2-week period in mice; format: functional
[2] = system: Mus musculus; assay: Antipapilloma activity was determined after intraperitoneal administration in mice; format: functional; settings: ip

`CC1=C(/C=C/C(C)=C/C=C/C(C)=C/C(=O)O)C(C)(C)CCC1` [TRETINOIN] was tested, and the Dose [1] was 80 mg/kg and the ED50 [2] was 400 mg/kg.

Work on `CCOC(=O)/C=C(C)/C=C/C=C(C)/C=C/c1c(C)sc(C)c1C` yielded a Dose [1] of 200 mg/kg and an ED50 [2] of 75 mg/kg.

Work on `CCOC(=O)/C=C(C)/C=C/C=C(C)/C=C/c1c(Cl)cc(OC)c(C)c1Cl` yielded a Dose [1] of 12 mg/kg and an ED50 [2] of 6 mg/kg.

For `CC1=C(/C=C/C(C)=C/C=C/C(C)=C\C(=O)O)C(C)(C)CCC1` [ISOTRETINOIN], the Dose [1] was 400 mg/kg and the ED50 [2] was 800 mg/kg.

In the case of `CCOC(=O)/C=C(C)/C=C/C=C(C)/C=C/c1c(C)cc(OC)c(C)c1C` [ETRETINATE], the Dose [1] is reported as 50 mg/kg and the ED50 [2] is reported as 25 mg/kg.

`COc1cc(C)c(/C=C/C(C)=C/C=C(F)/C(C)=C/C(=O)O)c(C)c1C` was tested, and the Dose [1] was 25 mg/kg and the ED50 [2] was 11.5 mg/kg.

With `CCOC(=O)c1ccc(/C=C(\C)c2ccc3c(c2)C(C)(C)CCC3(C)C)cc1` [AROTINOID] the Dose [1] was 0.1 mg/kg and the ED50 [2] was 0.05 mg/kg.

— ChEMBL document CHEMBL1122165, “Retinoids at the threshold: their biological significance and therapeutic potential” (J Med Chem, 1982)
